Reference: paper PMC7066533 (Frontiers in Pharmacology, 2020)
Where “and” joins values, the source holds several entries; their conditions need not be identical. Equal values may be shown once. Read-outs that look alike come from different tables or passages of the source. Square brackets hold non-standard residues; d marks the D form. Peptide text beside a SMILES is read from it. βAla = NCCC(=O)O

What was measured:
U87-MG cells = assay: Cell proliferation assay ([3H]-thymidine incorporation) in U87-MG cells; format: cell-based, human
Description: A cell proliferation assay was carried out as previously reported ([Bedini et al., 2017]). Briefly, U87-MG cells or normal human astrocytes were plated on a 12-well plate and treated as described in the results section or maintained in cell culture medium containing 10% fetal bovine serum. Five hours before the end of the treatments, [methyl-^3H] thymidine (Perkin Elmer) (50 nM final concentration) was added to serum-free cell culture medium, and the plate was incubated at 37°C. Thereafter, the medium was removed, and the cells were washed twice with PBS. Then, 200 μl of PBS was added to each well, and the cells were scraped off and centrifuged at 13,000 g for 3 min at 4°C. The supernatants were then discarded, pellets were re-suspended in 500 μl of cold trichloroacetic acid (10% w/v), incubated on ice for 20 min and centrifuged at 13,000 g for 3 min at 4°C. The supernatant was then discarded, and the pellet was suspended in 500 μl of cold methanol and centrifuged at 3 min for 13,000 g at 4°C. Thereafter, the pellet was suspended in 200 μl of 1 N NaOH and heated at 55°C for 10 min. Samples were then neutralized with 200 μl of 1 N HCl and 350 μl of the labelled DNA incubated in counting vials with 4 ml of Filter Count scintillation liquid (Perkin Elmer Italia). Vials were vortexed and incubated overnight at room temperature, and the radioactivity was determined by liquid scintillation spectrometry.

normal human astrocytes = format: cell-based; details: SB203580 2 µM, 30 min prior to U50,488
ERK1/2 phosphorylation = assay: ERK1/2 phosphorylation, western blot; format: cell-based, human
Description: HEK-293 cells stably expressing KOPr, U87-MG astrocytoma cells, or normal human astrocytes endogenously expressing KOPr were plated into 6-well plates until 60–70% confluence was reached. Then, the cells were serum-starved for 16–18 h and subsequently exposed to vehicle, LOR17 (1 μM; 0–120 min) or U50,488 (1 μM; 0–120 min). Alternatively, […] and U87-MG cells were exposed to norBNI (10 μM; 30 min prior to LOR17) and then treated with 1 μM LOR17, or they were exposed to increasing concentration of LOR17 (1–100 μM; 30 min). Proteins were extracted as previously reported ([Kuhar et al., 2015]), quantified by means of BCA assay (Pierce) and SDS-page gel electrophoresis performed as previously described for ERK1/2 ([Baiula et al., 2016]) and p38MAPK ([Schattauer et al., 2012]).
Membranes were then incubated with anti-phospho-ERK 1/2 (1:1,000) (Cell Signaling Technology, Danvers, MA, USA), anti-total ERK1/2 antibodies (1:1,000) (Cell Signaling Technology), anti-phospho-p38MAPK antibodies (1:1,000) (Cell Signaling Technology, Danvers, MA, USA), or anti-actin antibodies (1:2,500) (Santa Cruz Biotechnology, Dallas, TX, USA) at 4°C in the presence of BSA (5 g/100 ml) in Tris buffered saline containing Tween-20 (0.1 g/100 ml). […]

CD-1 adult male mice [1] = assay: Warm-water tail-withdrawal test; format: in vivo, mouse
Description: The warm-water tail-withdrawal test was performed as previously described ([Bedini et al., 2010]). Briefly, a mouse’s tail was immersed in hot water (52 ± 0.5°C), and the latency to tail withdrawal was measured as an indicator of nociception. Prior to being treated, each mouse was tested, and the latency to tail withdrawal was recorded (control latency, CL). Animals not withdrawing their tails within 5 s were not used (6% of mice). Responding animals were then injected i.p. with either vehicle or one of the compounds (LOR17 or U50,488; 0–20 mg/kg). The KOR antagonist norBNI (10 mg/kg; i.p.) was injected 30 min or 24 h prior to administering LOR17.
Latency to withdrawal was measured at 5, 15, 30, 45, 60, and 90 min after drug administration and defined as the test latency (TL), with a cutoff time of 10 s.

hMOPr = target: T1, hMOPr (Homo sapiens, UniProt P35372); assay: Displacement binding assay with [3H]DAMGO on HEK-293/hMOPr membranes
T1 construct: expressed in transfected cells

hDOPr = target: T2, hDOPr (Homo sapiens, UniProt P41143); assay: Displacement binding assay with [3H]diprenorphine on HEK-293/hDOPr membranes
T2 construct: expressed in transfected cells

KOPr [2] = target: T3, KOPr (Homo sapiens, UniProt P41145); assay: cell-based
[3] = target: KOPr in U87-MG human astrocytoma cells (Homo sapiens, UniProt P41145); assay: cell-based; details: U-87 MG, read-out: Emax U87-MG
[4] = target: KOPr in normal human astrocytes (Homo sapiens, UniProt P41145); assay: cell-based; details: read-out: Emax NHA
KOPr [5] = target: T3, KOPr; format: cell-based
hKOPr = format: cell-based, human
p38MAPK phosphorylation = format: cell-based, human
CD-1 adult male mice [6] = details: mouse, in vivo
CD-1 adult male mice [7] = details: mouse, in vivo; remark: listed apart in the source
CD-1 adult male mice [8] = assay: Hole-board test; format: in vivo, mouse; details: 10 mg/kg s.c.
Description: The hole-board test consisted of a […] plane with 16 flush-mounted cylindrical holes (3 cm diameter) distributed four by four in an equidistant, grid-like manner. Mice were placed on the center of the board one by one and allowed to move about freely for a period of 5 min. Two electric eyes, crossing the plane from midpoint to midpoint of the opposite sides, thus dividing the plane into four equal quadrants, automatically signaled the movement of the animal (counts in 5 min) on the surface of the plane (spontaneous motility). Miniature photoelectric cells in each of the 16 holes recorded (counts in 5 min) the exploration of the holes (exploratory activity) by the mice ([Guerrini et al., 2006]).

CD-1 adult male mice [9] = details: mouse, in vivo; remark: listed apart in the source
[10] = norBNI 10 µM 15 min prior, SB203580 2 µM 30 min prior, LOR17 10 μM co-administered

T3 sequence (P41145 whole entry): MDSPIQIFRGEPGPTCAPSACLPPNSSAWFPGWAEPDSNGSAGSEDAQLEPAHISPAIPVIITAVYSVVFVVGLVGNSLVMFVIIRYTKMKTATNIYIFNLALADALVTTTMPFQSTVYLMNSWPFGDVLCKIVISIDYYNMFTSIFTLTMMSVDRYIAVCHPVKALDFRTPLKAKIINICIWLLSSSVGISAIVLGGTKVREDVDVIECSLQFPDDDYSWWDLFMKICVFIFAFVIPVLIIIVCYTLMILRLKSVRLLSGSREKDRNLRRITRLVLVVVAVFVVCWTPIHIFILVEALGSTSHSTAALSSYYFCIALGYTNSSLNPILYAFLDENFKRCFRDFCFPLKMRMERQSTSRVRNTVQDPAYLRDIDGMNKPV
T1 sequence (P35372 whole entry): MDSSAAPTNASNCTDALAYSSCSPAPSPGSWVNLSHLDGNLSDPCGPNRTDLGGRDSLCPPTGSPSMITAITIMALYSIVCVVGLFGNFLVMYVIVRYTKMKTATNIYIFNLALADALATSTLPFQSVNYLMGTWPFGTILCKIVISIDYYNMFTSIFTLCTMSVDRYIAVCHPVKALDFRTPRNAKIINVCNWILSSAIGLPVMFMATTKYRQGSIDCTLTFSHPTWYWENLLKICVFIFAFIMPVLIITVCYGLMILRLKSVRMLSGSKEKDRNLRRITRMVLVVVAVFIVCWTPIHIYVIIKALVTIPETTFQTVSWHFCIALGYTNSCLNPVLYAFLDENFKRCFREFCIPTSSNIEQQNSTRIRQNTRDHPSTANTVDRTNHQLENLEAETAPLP
T2 sequence (P41143 whole entry): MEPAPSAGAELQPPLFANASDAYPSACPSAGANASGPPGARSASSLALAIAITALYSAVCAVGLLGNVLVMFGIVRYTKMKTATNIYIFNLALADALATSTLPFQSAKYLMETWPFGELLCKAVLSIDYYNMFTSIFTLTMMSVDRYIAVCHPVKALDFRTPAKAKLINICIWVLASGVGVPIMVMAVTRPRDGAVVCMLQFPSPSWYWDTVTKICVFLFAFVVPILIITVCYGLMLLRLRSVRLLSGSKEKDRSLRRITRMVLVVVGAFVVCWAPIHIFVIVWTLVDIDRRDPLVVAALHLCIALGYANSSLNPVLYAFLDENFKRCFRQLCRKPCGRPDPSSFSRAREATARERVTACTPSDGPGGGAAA
Sequence of KOPr in normal human astrocytes (P41145 whole entry): as the sequence (P41145 whole entry) above
Sequence of KOPr in U87-MG human astrocytoma cells (P41145 whole entry): as above

`C[S+]([O-])c1ccc(-c2nc(-c3ccncc3)c(-c3ccc(F)cc3)[nH]2)cc1` (stereo not drawn) [SB203580, reference compound] was tested, and the “Effect on U50,488 (1 µM)-mediated increase of U87-MG cell proliferation” value (U87-MG cells; [10]) was “prevented” and the “Effect on U50,488 (1 µM)-enhanced normal human astrocyte cell proliferation” value (normal human astrocytes) was “abolished”.

For `Oc1ccc2c3c1O[C@H]1c4[nH]c5c(c4C[C@@]4(O)[C@@H](C2)N(CC2CC2)CC[C@]314)C[C@@]1(O)[C@H]2Cc3ccc(O)c4c3[C@@]1(CCN2CC1CC1)[C@H]5O4` [norBNI, norbinaltorphimine, reference compound], the “LOR17 (1 μM)-mediated increase in ERK1/2 phosphorylation after antagonist” value (ERK1/2 phosphorylation; norBNI 10 μM, 30 min prior to LOR17, HEK-293/hKOPr and U87-MG cells) was “fully reverted”, the “Effect on U50,488 (1 µM)-mediated increase of U87-MG cell proliferation” value (U87-MG cells; [10]) was “prevented” and the “Effect on LOR17-mediated antinociception in the tail-withdrawal test” value (CD-1 adult male mice [1]; norBNI 10 mg/kg i.p.) was “prevented”.

With `O=C1CNC(=O)[C@H](Cc2ccccc2)NC(=O)[C@@H](Cc2c[nH]c3ccccc23)NC(=O)CCN1` [LOR17, c[Phe-Gly-(β-Ala)-D-Trp]] (cyclo(FG[βAla][dW])) the Ki (hMOPr) was > 100 µM, the Ki (hDOPr) was > 100 µM and the “log(τ/KA) G Protein” value (KOPr [2]) was 8,856. The “Δlog(τ/KA) G Protein” value (KOPr [2]) was 0,261, the Emax (KOPr [2]; HEK293, read-out: Emax HEK-293/KOR) was 85 ± 5% and the Emax [3] was 87 ± 4%. For the same compound, the Emax [4] was 88 ± 6%, the “log(τ/KA) β-arrestin 2” value (KOPr [5]) was 3,432 and the “Δlog(τ/KA) β-arrestin 2” value (KOPr [5]) was -2,67. For the same compound, the “β-arrestin 2 recruitment at KOPr” value (KOPr [5]) was “very week β-arrestin 2 recruitment at KOPr and only at concentrations higher than 1 μM”, the “Bias Factor” value (hKOPr) was 853 and the “ΔΔlog(τ/KA)” value (hKOPr) was 2,931. For the same compound, the “ERK1/2 phosphorylation levels vs vehicle” value (ERK1/2 phosphorylation) was “significant increase in ERK1/2 phosphorylation only after 15 min of exposure”, the “Effect on U50,488-induced p38MAPK phosphorylation” value (p38MAPK phosphorylation) was “counteracted U50,488-induced p38MAPK phosphorylation in a concentration-dependent fashion” and the “p38MAPK phosphorylation vs vehicle” value (p38MAPK phosphorylation) was “does not influence p38MAPK phosphorylation”. The “Effect on U50,488 (1 µM)-mediated increase of U87-MG cell proliferation” value (U87-MG cells) was “prevented the increase in U87-MG cell proliferation”, the “U87-MG cell proliferation rate vs vehicle” value (U87-MG cells) was “did not alter the U87-MG cell proliferation rate” and the “Antinociception in the tail-withdrawal test” value (CD-1 adult male mice [1]; mouse, in vivo) was “antinociceptive response in a dose- and time-dependent fashion”. The “ED50, warm-water tail-withdrawal test” value (CD-1 adult male mice [1]; mouse, in vivo, ip) was 10.07 ± 0.36 mg/kg, the “Number of writhes vs vehicle” value (CD-1 adult male mice [6]) was “significantly reduced the number of writhes” and the “ED50, writhing test” value (CD-1 adult male mice [6]; ip) was 5.74 ± 0.46 mg/kg. For the same compound, the “Effect on oxaliplatin-induced thermal hypersensitivity, single s.c. administration” value (CD-1 adult male mice [7]) was “fully reversed the oxaliplatin-dependent hypersensitivity”, the “Efficacy in cold plate test after repeated treatment” value (CD-1 adult male mice [7]) was “maintains its efficacy” and the “Licking latency (maximal effect)” value (CD-1 adult male mice [7]) was 18.2 ± 1.4 s and 19.6 ± 1.7 s. The “Dose from which licking latency increase takes effect” value (CD-1 adult male mice [7]; sc) was 1 mg/kg, the “ED50, oxaliplatin-induced thermal hypersensitivity (cold plate test)” value (CD-1 adult male mice [7]; sc) was 6.63 ± 0.23 mg/kg and the “Board (locomotor activity)” value (CD-1 adult male mice [8]; 0 min) was 89.2 ± 7.3 counts in 5 min. For the same compound, the “Hole (exploratory activity)” value (CD-1 adult male mice [8]; 0 min) was 37.2 ± 3.9 counts in 5 min, the “Board (locomotor activity)” value (CD-1 adult male mice [8]; 30 min) was 97.2 ± 16.9 counts in 5 min and the “Hole (exploratory activity)” value (CD-1 adult male mice [8]; 30 min) was 39.0 ± 4.6 counts in 5 min. The Mobility time (CD-1 adult male mice [9]) was 91.6 ± 12.3 s.
